Legend:
[1] = target: T1, cAMP phosphodiesterase 3 from human platelets (Homo sapiens, UniProt Q14432); experiment: Inhibition of cAMP phosphodiesterase 3 from human platelets; type: biochemical; details: PDE3, platelet cell extract; X marks this range; read-out: IC50 range (μM) 10-100
T1 construct: from tissue; host or cells: human platelets, cytoplasmic extract
Excerpt: Compound 12 was screened for activity against 5 of the major classes of mammalian cyclic nucleotide phosphodiesterase (termed PDE 1 through 5). PDE's 1 through 4 utilize cAMP as substrate while PDE 5 uses cGMP. The broad specificity PDE inhibitor 3-isobutyl-1-methylxanthine (IBMX; Sigma; Catalogue No. 17018)) was used as a positive control in all assays. PDE's for the various assays were partially purified from the following cells/tissues; PDE 1 (bovine heart), PDE 2 (human platelets), PDE 3 (human platelets), PDE 4 (human promonocytic U937 cells) and PDE 5 (human platelets).
Platelet cell extracts were prepared as described above for the U937 cells. The PDE3 assay was performed using platelet cell extract as described above for the PDE 4 assay. Platelets contain PDE 2, 3 and 5. However PDE2 and 5 preferentially utilize cGMP, so in an assay with cAMP as a substrate they are not detected.

[2] = tested on: primary human neutrophils; experiment: Generation of reactive oxygen species by fMLP-activated neutrophils (luminol-enhanced chemiluminescence); type: cell-based; details: Neutrophil, read-out: IC50 RANGE (μM) <1, ROS production, X marks this range
Excerpt: Neutrophil activation can be measured by quantitation of ROS generated in vitro. Measurement of ROS allows specific quantitation of a pro-inflammatory species and is also a general measure of neutrophil activation. The most sensitive method for measuring the production of ROS by neutrophils is luminol-enhanced chemiluminescence. […] The assay system used to evaluate the ability of compounds to inhibit ROS generation in neutrophils is indicative of anti-inflammatory activity that may be efficacious in disease states including but not limited to rheumatoid arthritis and inflammatory bowel disease.
Freshly isolated primary human neutrophils (5×10^6 cells/mL) were incubated with the required concentrations of compound or vehicle for 30 minutes at 37° C. in HBSS buffer (pH 7.4) containing Ca^2+. 100 nM wortmannin was used as a positive control. Aliquots of each sample were transferred to a microtitre plate to which luminol (1 μM); obtained from Sigma; Catalogue No. A8511 is added. Activation of the neutrophils was immediately initiated by addition of (1 μM) fMLP; obtained from Sigma, Catalogue No. F3506. Light output from each well was recorded for 30 minutes in a microplate luminometer. Total light output (integral of the time-course) was determined for each well. Inhibitory activities of test drugs against neutrophil ROS generation is expressed as percentage activity relative to a no drug control (100% activation or generation of ROS) containing 0.25% DMSO. Concentration of test compound required to inhibit the generation of ROS to 50% of control values (IC50's) were determined from concentration-response curves by non-linear regression analysis.

[3] = tested on: Resiniferitoxin-induced mouse ear edema; experiment: Resiniferitoxin-induced mouse ear edema; type: in vivo; details: Mus musculus; topical administration, 50 μg/ear, RTX 0.1 μg/ear, CD1 mice
Excerpt: One of the primary characteristics of inflammation is an increase in vascular dilation and permeability leading to the extravasation of, and collection of fluids in, the interstitium, resulting in redness and swelling. Rheumatoid arthritis in particular is characterized by pronounced edema of affected joints resulting in significant pain and stiffness. The mouse ear inflammation model is a standard in vivo assay for inflammation that is based on an increase in ear weight which is attributable to edema induced by inflammatory mediators. RTX (resiniferitoxin; Sigma; Catalogue No. R 8756)) is a diterpene isolated from the plant Euphorbia poisonii and is an ultrapotent analog of capsaicin. RTX acts by selectively stimulating nociceptive and thermal-sensitive nerve ending in tissue, eliciting neurogenic edema. Compounds of the present invention, whether administered topically, intraperitoneally or orally, inhibited development of edema induced by topical application of RTX.
Mice (CD1, Charles River Laboratories) were separated into groups (n—5−8) and tagged. Control mice had RTX (0.1 μg/ear) applied topically to the inner and outer sides of the left ear and vehicle applied to the right ear as a control. For topical administration, experimental/treatment mice received RTX+test compound solution (50 μg/ear) on the left ear and acetone on the right ear. For intraperitoneal (i.p.) administration, 100 mg/kg test compound dissolved in 100 μL PEG 200:saline (1:1) was injected followed by a 30 minute waiting period then the standard 30 minute RTX edema induction. For oral (p.o.) administration, 10 mg/kg test compound in 100 μL PEG-200 was given to animals, then edema induced using 0.1 μg/ear RTX after a 1.5 hour waiting period. After edema induction, mice were sacrificed, and a standard disc of ear tissue was removed. Each disk of tissue was immediately weighed to the nearest 1/10th of a mg. Data were analyzed by taking the difference of each left ear from the right ear, calculating the mean+/−SEM. Statistical significance was tested by 2-sample t-test on the left/right ear weight differences of the control group vs. the experimental group.

[4] = tested on: primary human neutrophils; experiment: fMLP-induced human neutrophil chemotaxis; type: cell-based; details: fMLP-induced chemotaxis, X marks this range, read-out: IC50 RANGE (μM) 10-100
Experimental: Chemotaxis buffer containing the chemoattractant fMLP (10 μM) was added to each well of a chemotaxis plate and a filter was inserted ensuring contact between the filter and the chemotaxis buffer in the well. A submaximal concentration of chemoattractant was used which had been determined in previous experiments. […] Freshly isolated neutrophils (1×10^6) were incubated with vehicle (0.125% DMSO)±test compound for 1 hr at 37° C. Treatment and control cell suspensions were then gently resuspended and 20 μL of cells was added to the top side of the filter on each well. The plate was incubated for 1.5 hours at 37° C. under 5% CO2. Cells were then removed from the top side of the filter by aspiration and the entire plate was centrifuged. The filter was removed and known concentrations of cells were added to unused wells to prepare a standard curve. XTT (Sigma; Catalogue No. X 4251)/PMS (Sigma; Catalogue No. P 7626) solution prepared in buffer was added to each well and the cells were further incubated 1-2 hours and measured for absorbance at 450 nm. Absorbance values were converted to cell numbers using the standard curve. IC50 values are averages from at least three separate experiments with triplicate determinations.

[5] = tested on: cAMP response element luciferase activity in human U937 monocytic cells; experiment: Potentiation of forskolin-induced CRE-luciferase activity in U937 cells; type: cell-based; details: U-937, U937 cells co-incubated with 10 μM forskolin, 4 hours, X marks this range, read-out: EC50 range (μM) 1-25
Experimental: Compounds of the present invention were thereby shown to provide potentiated luciferase expression in U937 cells treated with the adenylyl cyclase activator forskolin.
Human pro-monocytic U937 cells were maintained in RPMI medium containing 10% FCS and 2 mM […]. U937 cells were transiently transfected as described in Biotechniques Vol. 17(6):1058, 1994. Briefly, cells were grown in medium containing serum to a density of 5×10^6 cells/mL and then resuspended in media containing serum at a density of approximately 1×10^7 cells/mL. 400 μL of cells were transferred into the electroporation cuvette containing 10 μg of the reporter vector (PCRE-luc) in a volume of 40 μL H2O. Reporter vector DNA was prepared from DH5α E. coli using the DNA […] free kit (Qiagen) as per manufacturers instructions. U937 cells were clectroporated at room temperature using a BIORAD electroporator. Capacitance was set to 1050 μF and voltage was 280V. The time constant was noted after each electroporation. Cells were then diluted in 4 mL of media and serum and 200 μL of cells were plated per well. Cells were allowed to recover for 16-18 hours. Cells were then treated with a test compound or vehicle in the presence or absence of 10 μM forskolin for 4 hours at 37° C.
The luciferase assay was performed as per manufacturers instructions (Tropix). Briefly, cells were centrifuged for 4 minutes at 1200 rpm and media supernatant was removed. Cell pellets were lysed in 15 μL Lysis buffer (Tropix). Luciferase assay was performed using 10 μL of cell lysate with 10 μL of buffer A and 25 μL buffer B. Luciferase activity was obtained using a luminometer with a 5-second delay followed by a read time of 10 seconds.

[6] = tested on: High Affinity Rolipram Binding Site of PDE4 in Mouse Brain; experiment: Displacement of [3H]-rolipram from its high affinity binding site (HARBS); details: ratio of IC50 for PDE4 catalytic activity to concentration displacing 50% of rolipram from HARBS
Experimental: Suspension was centrifuged twice at 30,000×G at 4° C. and the supernatant discarded. The pellet was resuspended in buffer, and adjusted to a protein concentration of 0.5 mg/mL. Drugs to be tested were dissolved in DMSO and pipetted in triplicate into a 96 well microplate at concentrations ranging from 1 to 30,000 nM. […] The plate was incubated at 4° C. for 1 hour. Contents of the plate were aspirated through a Whatman GF/C filterplate, and rinsed with 4×200 μL ice-cold buffer. […] Triplicate determinations were performed at each concentration.

[7] = tested on: K562 chronic myelogenous leukemia cells; experiment: Anti-proliferative activity in K562 cells (3H-thymidine uptake); type: cell-based, human
Experimental: 90 μL K562 cells (human chronic myelogenous leukemia cells) were seeded into sterile 96-well assay plates at a density of 1×10^5 cells/mL in RPMI 1640 supplemented with 10% FBS/2 mM L-glutamine. Samples to be tested were prepared in a sterile 96-well assay plate at 10×the final concentration desired. All sample dilutions contained equal amounts of DMSO to compensate for the % DMSO in the highest sample concentration used. Nine concentrations of test compound were examined for effects on growth up to a maximal concentration of 100 μM. 10 μL of the samples and controls (DMSO/normal growth control) were added to the aliquoted cells. The cells were incubated at 37° C./5% CO2 for 48 hours. Following 48 hour incubation, 20 μL of 3H-thymidine was added to each well for a final concentration of 1 μCi/mL. The cells were then incubated at 37° C./5% CO2 for 4 to 6 hours. Following 4-6 hour thymidine pulse, plates were wrapped in plastic and frozen in a −20° C. frost-free freezer overnight. Cells were harvested and ^3H-thymidine counts determined. In order to distinguish between cytotoxicity and cytostatic activity, growth curves were prepared where the average CPM value of the seeding density of cells was plotted on the same curve as the average CPM value for the maximum proliferation attained after 48 hours (DMSO growth control cells). The cells were diluted 1:2 for a concentration range of 7.8×10^3 cells/mL to 2×10^6 cells/mL. 90 μL of each cell dilution was seeded in sterile 96-well assay plated and allowed to equilibrate for approximately 4 hours at 37° C./5% CO2 prior to ^3H-thymidine pulse. The data in Table 15 was obtained as described above, and more specifically, K562 cells were seeded into 96-well plates at 1×10^5 cells/mL in RPMI 1640 supplemented with 10% FBS/2 mM L-glutamine. Various concentrations of test compound or vehicle (DMSO) was added and the cells were incubated at 37° C./5 CO2 for 48 hours. The cells were then pulsed at 37° C./5% CO2 for 4 to 6 hours with 1 μCi/mL ^3H-thymidine. Radioactivity incorporated into DNA was determined after harvesting onto glass fiber filters and scintillation counting.

T1 sequence (Q14432 whole entry): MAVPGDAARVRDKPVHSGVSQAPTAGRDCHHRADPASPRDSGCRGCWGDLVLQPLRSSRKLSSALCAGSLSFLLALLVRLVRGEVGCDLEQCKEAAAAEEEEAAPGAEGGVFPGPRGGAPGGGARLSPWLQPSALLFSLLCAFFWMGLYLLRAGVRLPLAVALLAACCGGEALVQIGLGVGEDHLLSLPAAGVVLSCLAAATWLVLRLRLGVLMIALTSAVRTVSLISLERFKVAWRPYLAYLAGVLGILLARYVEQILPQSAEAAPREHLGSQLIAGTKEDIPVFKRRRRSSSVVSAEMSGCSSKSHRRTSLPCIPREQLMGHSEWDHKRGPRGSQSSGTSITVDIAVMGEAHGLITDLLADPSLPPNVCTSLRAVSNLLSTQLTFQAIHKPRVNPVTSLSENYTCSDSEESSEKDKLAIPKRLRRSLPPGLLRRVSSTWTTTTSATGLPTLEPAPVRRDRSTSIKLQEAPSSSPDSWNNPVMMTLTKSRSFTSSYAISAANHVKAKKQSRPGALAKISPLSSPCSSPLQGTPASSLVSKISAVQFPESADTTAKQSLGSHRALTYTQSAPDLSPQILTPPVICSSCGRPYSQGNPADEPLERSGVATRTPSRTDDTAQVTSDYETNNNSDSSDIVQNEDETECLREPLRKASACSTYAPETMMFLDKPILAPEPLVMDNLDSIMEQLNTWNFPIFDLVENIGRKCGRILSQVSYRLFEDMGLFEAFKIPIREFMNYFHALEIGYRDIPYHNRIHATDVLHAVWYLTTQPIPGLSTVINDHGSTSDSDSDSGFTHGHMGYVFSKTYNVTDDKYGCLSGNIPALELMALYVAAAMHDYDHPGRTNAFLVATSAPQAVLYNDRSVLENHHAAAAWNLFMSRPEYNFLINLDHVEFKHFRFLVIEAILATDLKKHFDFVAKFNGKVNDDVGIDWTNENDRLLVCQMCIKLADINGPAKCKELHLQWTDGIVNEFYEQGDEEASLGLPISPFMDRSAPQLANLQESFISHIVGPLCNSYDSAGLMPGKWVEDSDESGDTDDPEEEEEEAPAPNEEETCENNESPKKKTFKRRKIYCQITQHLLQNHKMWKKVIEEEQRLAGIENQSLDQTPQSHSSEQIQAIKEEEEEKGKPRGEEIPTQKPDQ

SMILES | IC50 [1] | IC50 [2] | inhibition in vivo at 50 µg/ear [3] | IC50 [4] | EC50 [5] | PDE4:HARBS [6] | effect on proliferative ability / cell cycle of K-562 cells [7]
COc1cc(C[C@H]2C[C@@H](c3ccc(OC)c(OC)c3)COC2=O)ccc1O [Compound 29] | 10 to 100 µM | < 1 µM | 76% | 10 to 100 µM | 1 to 25 µM | <1 | 
COc1ccc([C@H]2COC(=O)C(Cc3ccc(O)c(O)c3)C2)cc1OC1CCCC1 (some centres unmarked) [Compound 179] |  |  |  |  |  | <1 | cell cycle arrest

Source: patent US20030186943A1, “Substituted gamma-phenyl-delta-lactams and uses related thereto” (Inflazyme Pharmaceuticals Ltd., priority 1998, published 2003)
